# Where no end group is shown, it is not given here.
# Test system: hMSCs
# Assay: Loss of stemness: STRO-1 expression by immunostaining
# Format: cell-based, human
# Conditions: Table 6, previously reported peptides in solution, 400 ng/mL
# Description: The cells were first fixed for 20 min with 4% paraformaldehyde/PBS at 4° C. After fixation, the cells were permeabilized in PBS containing 1% Triton X-100 for 15 min. Runx2, Osterix, Stro-1, Vinculin, Phalloidin, Osteopontin, Sox2, Sox9 antibodies were visualized by treating the cells with 1% (v/v) specific monoclonal antibodies for 1 hour at 37° C. Then the samples were incubated with Alexa Fluor® 568 or 647 (F(ab′)2 fragment of IgG(H+L)) during 30 min at room temperature. The cell nuclei were counterstained in 20 ng/mL DAPI for 10 min at room temperature.
# For this type of quantification the freeware image analysis ImageJ® software was used. The raw image was first converted to an 8-bit file, and then the unsharp mask feature was used (settings 1:0.2) to remove the image background (rolling ball radius 10). After smoothing, the resulting image, which appears similar to the original photomicrograph but with minimal background, was then converted to a binary image by setting a threshold. Threshold values were determined empirically by selecting a setting, which gave the most accurate binary image for a subset of randomly selected photomicrographs. The cell area was determined by manual delineation on raw fluorescent images. Total contact area and mean contact area per cell were calculated by “analyse particules” in ImageJ®. A minimum of 30 cells per condition were analyzed. Stro-1, CD-34+, and CD-105 expressions were determined using this procedure.
# hMSCs were cultured on conventional cell culture plastic plates with or without the presence in the cell culture media of different GFR-binding compounds as described herein (SEQ ID NO: 50 to 88) in solution. […] This was probed by Stro-1 immunostaining after cell fixation as described in the Methods section. The quantification of Stro-1 positive contact numbers and areas was performed as described in the Methods section. A minimum of 30 cells per condition were analyzed. Stro-1 positive marrow cells are multipotential and capable of differentiating into multiple mesenchymal lineages including stromal cells with a phenotype resembling vascular smooth muscle cells that can support hematopoiesis, adipocytes, osteoblasts, and chondrocytes.
# Using the method detailed in the description, the RMSD of 57 previously reported peptide sequences have been determined (Table 6) and correlated with the expression of STRO-1 in solution. […] One should note that it is commonly admitted that the expression of STRO-1 in a cell is indicative of a cell that is in a substantially non-differentiated state and the decrease of its expression of at least about 20% is indicative of a cell that has started a process of differentiation but which may not result in the differentiation of the cell. A decrease of more than 50% would be indicative of the presence of a significant shift towards a differentiated state. A decrease of more than 70% would be indicative of the presence of a very important shift towards a differentiated state. A sustained decrease (e.g. for at least 96 h) of more than 50% or 70% would be indicative of the presence of an even more important shift towards a differentiated state.
# Likewise, using the method detailed in the description, the RMSD of 75 GFR-binding peptide sequence representatives of the invention have been determined (Table 8) and correlated with the expression of STRO-1. SEQ ID NO: 1 to 49 were tested in combination with a bioactive carrier as defined above in the Examples Section (i.e. titanium, ceramics, collagen, etc. . . . ), whereas SEQ ID NO: 2242 to 2267 were tested in solution.
row,Substance,STRO-1 expression (%)
1,"2204 (KIPKPSSAPTELSAISMLC; Peptide reported in WO2009151288, SEQ ID NO:6) [compound 2204]",82%
2,"2162 (ENVNLKKYRNMIVKSCGCH; Peptide reported in US20040039543, SEQ ID NO:107) [compound 2162]",97%
3,"2199 (APTQLSAISVL; Peptide reported in US20050250936, SEQ ID NO:71) [compound 2199]",93%
4,"2180 (VPTKLSPISILYLDKGVVTYKFKYEGMSVAECGCR; Peptide reported in US8969040, SEQ ID NO:90) [compound 2180]",80%
5,"2198 (APTKLNAISVLYFDDSSNVILKKYRNMIVKS; Peptide reported in US20120244575, SEQ ID NO:4530) [compound 2198]",84%
6,"2187 (SVPAVCSATSATGPYSTATNTVWPSIVATGGTT; Peptide reported in EP1687419, SEQ ID NO:43) [compound 2187]",92%
7,"2175 (VGAAWWLREQGSPINTLAVPA; Peptide reported in WO2013040142, SEQ ID NO:133294) [compound 2175]",88%
8,"2196 (MAAQDEWRDAITLTMGRDLKKVPQHLNAISVIDPVT; Peptide reported in US20120246748, SEQ ID NO:111359) [compound 2196]",83%
9,2212 (CCAPTQLSAISVLYFDDSSNVILKKYRNMVVRACGCR; Comparative sequence) [compound 2212],82%
10,"2195 (MALPQPRGSSLSKAPVVVAPCMALKRVNIRSIVFEVLKTMNQNCIHETPN; Peptide reported in US20130333061, SEQ ID NO:158498) [compound 2195]",82%
11,"2177 (VPTKLEPISVLYKDDMGVPTLKYHYEGMAVSECGCR; Peptide reported in US8969040, SEQ ID NO:89) [compound 2177]",81%
12,"2181 (VPTKLSPISILYKDDMGVPTYKFKYEGMSVAECGCR; Peptide reported in US20140056902, SEQ ID NO:88) [compound 2181]",82%
13,2211 (CCAPTELSAISVLYFDDSSNVILKKYRNMVVRACGCR; Comparative sequence) [compound 2211],81%
14,"2209 (MRTESTPTTASAISYECLWSPPSNEAAKLHFDS; Peptide reported in US20070083334, SEQ ID NO:966410) [compound 2209]",94%
15,"2192 (SFRTARANAPTGRSSLSGEKEQQEASTHS; Peptide reported in WO2013040142, SEQ ID NO:3136558) [compound 2192]",91%
16,"2176 (MQCRELVTQVTEEPISQTEDGEEQESTTTPRLKGQKKE; Peptide reported in US20070083334, SEQ ID NO:958173) [compound 2176]",85%
17,2161 (DPLPIIYYVGRNVRVEQLSNMVVRACKCS; Comparative sequence) [compound 2161],97%
18,"2167 (LNEVLRFCGIQVPEGDEPLTY; Peptide reported in WO2013040142, SEQ ID NO:89702) [compound 2167]",99%

# Same assay, conditions: Table 8, SEQ ID NO: 1 to 49 tested in combination with a bioactive carrier (titanium, ceramics, collagen, etc.)
row,Substance,STRO-1 expression (%)
1,38 (CVPTEERSVKVAKVRIKPHQGQHKEVQV; GFR-binding peptide) [compound 38],23%
2,27 (GTPGPAPTKLSAISMLYLDSSNNVILRKHR; GFR-binding peptide) [compound 27],19%
3,18 (CKVGKASSVPTKLNAISTLYLDENEKVVLKKYREGMS; not fully specified; ends and bridges not checked) [compound 18],19%
4,39 (CVPTEESNITMQIMRIKPHQGQHIGEMSFL; GFR-binding peptide) [compound 39],16%
5,9 (CRNVQCRPTQVQLSAISTLYLEIVRKKPLKNYQTLEDH; GFR-binding peptide) [compound 9],19%
6,32 (WWFWGKASSVPTELSPISTLYKDENEKVVLKYHYDMVVEGSGSR; not fully specified; ends and bridges not checked) [compound 32],21%
7,20 (CKVGKASSVPTKLNAISTLYLDDSSNVILKNYQ; not fully specified; ends and bridges not checked) [compound 20],18%
8,29 (GTPGPKASSVPTELSPISTLYKDENEKVVLKYHYDMVVEGSGSR; not fully specified; ends and bridges not checked) [compound 29],21%
9,22 (WWFWGKVPKPSSAPTQLSAISTLYLDEYDKVVLKNYQNMVVR; not fully specified; ends and bridges not checked) [compound 22],17%
10,33 (WWFWGASSAVSQELSAISMLYLGGGLKNYQDMQHN; GFR-binding peptide) [compound 33],28%
11,30 (GTPGPKASSVPTELSPISTLYKDENEKVVLKYHYDM; GFR-binding peptide) [compound 30],18%
12,10 (CPSSAPTQLSATSVLYYDDSSNVILRKHRQHNK; GFR-binding peptide) [compound 10],19%
13,8 (CAPTQLSPISVLYKDDSSNVILKYHYTLEDH; GFR-binding peptide) [compound 8],19%
14,12 (CKVPKASSVPTELSAISTLYLAAAALKNYQEM; GFR-binding peptide) [compound 12],28%
15,14 (CAPTKLSAISMLYLDSSNNVILKNYQ; GFR-binding peptide) [compound 14],16%

# Same assay, conditions: Table 8, SEQ ID NO: 2242 to 2267 tested in solution
row,Substance,STRO-1 expression (%)
1,2244 (VPTVVSAISTLYLRIKPHQGQHLKNYQVVVVE; GFR-binding peptide) [compound 2244],21%
2,2257 (VPTGGEPLTTLYYNDKQQIIEQLSNGGEHS; GFR-binding peptide) [compound 2257],26%
3,2266 (RVPSTSSAPVKTSNITMQIMDNGRVLLLGEMSMIVEESGSL; GFR-binding peptide) [compound 2266],22%
4,2261 (NDEGLESVPTGQSPISILYIRIKPHQGQHYKQYELEEHSQSESR; GFR-binding peptide) [compound 2261],17%
5,2256 (VPTDDSATSTLYYDKGVVTYLRKHRDDEHS; GFR-binding peptide) [compound 2256],27%
6,2250 (VPTVVSPISMLYIDDMGVPTYKQYEVVVVE; GFR-binding peptide) [compound 2250],26%
7,2251 (APVAAKPLSMLYVDKGVVTYDHHKDAAVEE; GFR-binding peptide) [compound 2251],22%
8,2248 (VPTAAEPISMLYLDEYDKVVKFKYEAAAVS; GFR-binding peptide) [compound 2248],26%
9,2263 (ASASPSSAPVDLKPLSMLYVIGKTPKIDHHKDMIVEESKSS; GFR-binding peptide) [compound 2263],16%
10,2249 (TPTSSSPINTLYFDDMGVPTYGKIPSSVVD; GFR-binding peptide) [compound 2249],25%
11,2242 (VPTAASAISILYLDAANNVVLKNYQAAVVE; GFR-binding peptide) [compound 2242],17%
